Values after ≈ are worked out from the molar mass of the structure shown.
Assays:
Format in all cases: functional
[1] = tested on: Mycobacterium tuberculosis; experiment: Antimycobacterial activity against multidrug-resistant Mycobacterium tuberculosis 234/2005 after 7 days by micromethod
[2] = tested on: Mycobacterium tuberculosis; experiment: Antimycobacterial activity against multidrug-resistant Mycobacterium tuberculosis 234/2005 after 14 days by micromethod; settings: 234/2005, 336 h
[3] = tested on: Mycobacterium tuberculosis; experiment: Antimycobacterial activity against multidrug-resistant Mycobacterium tuberculosis 9449/2007 after 7 days by micromethod
[4] = tested on: Mycobacterium tuberculosis; experiment: Antimycobacterial activity against multidrug-resistant Mycobacterium tuberculosis 9449/2007 after 14 days by micromethod; settings: 9449/2007, 336 h
[5] = tested on: Mycobacterium tuberculosis; experiment: Antimycobacterial activity against multidrug-resistant Mycobacterium tuberculosis 8666/2010 after 7 days by micromethod
[6] = tested on: Mycobacterium tuberculosis; experiment: Antimycobacterial activity against multidrug-resistant Mycobacterium tuberculosis 8666/2010 after 14 days by micromethod; settings: 8666/2010, 336 h
[7] = tested on: Mycobacterium tuberculosis; experiment: Antimycobacterial activity against multidrug-resistant Mycobacterium tuberculosis Praha 1 after 7 days by micromethod
[8] = tested on: Mycobacterium tuberculosis; experiment: Antimycobacterial activity against multidrug-resistant Mycobacterium tuberculosis Praha 1 after 14 days by micromethod; settings: Praha 1, 336 h
[9] = tested on: Mycobacterium tuberculosis; experiment: Antimycobacterial activity against multidrug-resistant Mycobacterium tuberculosis Praha 4 after 7 days by micromethod
[10] = tested on: Mycobacterium tuberculosis; experiment: Antimycobacterial activity against multidrug-resistant Mycobacterium tuberculosis Praha 4 after 14 days by micromethod; settings: Praha 4, 336 h
[11] = tested on: Mycobacterium tuberculosis; experiment: Antimycobacterial activity against multidrug-resistant Mycobacterium tuberculosis Praha 131 after 7 days by micromethod
[12] = tested on: Mycobacterium tuberculosis; experiment: Antimycobacterial activity against multidrug-resistant Mycobacterium tuberculosis Praha 131 after 14 days by micromethod; settings: Praha 131, 336 h

Row | Molecule | MIC ([1]; 234/2005, 168 h) | MIC [2] | MIC ([3]; 9449/2007, 168 h) | MIC [4] | MIC ([5]; 8666/2010, 168 h) | MIC [6] | MIC ([7]; Praha 1, 168 h) | MIC [8] | MIC ([9]; Praha 4, 168 h) | MIC [10] | MIC ([11]; Praha 131, 168 h) | MIC [12] | MIC [1] | MIC [3] | MIC [5] | MIC [7] | MIC [9] | MIC [11]
1 | CCCCCCn1nnnc1[Se]Cc1cc([N+](=O)[O-])cc([N+](=O)[O-])c1 | 1 µM (≈ 0.413 µg/mL) | 0.5 µM (≈ 0.207 µg/mL) | 1 µM (≈ 0.413 µg/mL) | 0.5 µM (≈ 0.207 µg/mL) | 0.5 µM (≈ 0.207 µg/mL) | 0.25 µM (≈ 0.103 µg/mL) | 1 µM (≈ 0.413 µg/mL) | 0.5 µM (≈ 0.207 µg/mL) | 1 µM (≈ 0.413 µg/mL) | 0.5 µM (≈ 0.207 µg/mL) | 1 µM (≈ 0.413 µg/mL) | 0.5 µM (≈ 0.207 µg/mL) | – | – | – | – | – | –
2 | O=[N+]([O-])c1cc(C[Se]c2nnnn2C2CCCCC2)cc([N+](=O)[O-])c1 | 1 µM (≈ 0.411 µg/mL) | 0.5 µM (≈ 0.206 µg/mL) | 1 µM (≈ 0.411 µg/mL) | 0.5 µM (≈ 0.206 µg/mL) | 0.5 µM (≈ 0.206 µg/mL) | 0.5 µM (≈ 0.206 µg/mL) | 1 µM (≈ 0.411 µg/mL) | 0.5 µM (≈ 0.206 µg/mL) | 1 µM (≈ 0.411 µg/mL) | 0.5 µM (≈ 0.206 µg/mL) | 1 µM (≈ 0.411 µg/mL) | 0.5 µM (≈ 0.206 µg/mL) | – | – | – | – | – | –
3 | O=[N+]([O-])c1cc(CSc2nnnn2C2CCCCC2)cc([N+](=O)[O-])c1 | 1 µM (≈ 0.364 µg/mL) | 0.5 µM (≈ 0.182 µg/mL) | 1 µM (≈ 0.364 µg/mL) | 1 µM (≈ 0.364 µg/mL) | 0.5 µM (≈ 0.182 µg/mL) | 0.5 µM (≈ 0.182 µg/mL) | 1 µM (≈ 0.364 µg/mL) | 1 µM (≈ 0.364 µg/mL) | 1 µM (≈ 0.364 µg/mL) | 0.5 µM (≈ 0.182 µg/mL) | 1 µM (≈ 0.364 µg/mL) | 1 µM (≈ 0.364 µg/mL) | – | – | – | – | – | –
4 | COc1ccc(-n2nnnc2[Se]Cc2cc([N+](=O)[O-])cc([N+](=O)[O-])c2)cc1 | 1 µM (≈ 0.435 µg/mL) | 1 µM (≈ 0.435 µg/mL) | 1 µM (≈ 0.435 µg/mL) | 1 µM (≈ 0.435 µg/mL) | 0.5 µM (≈ 0.218 µg/mL) | 0.5 µM (≈ 0.218 µg/mL) | 1 µM (≈ 0.435 µg/mL) | 0.5 µM (≈ 0.218 µg/mL) | 1 µM (≈ 0.435 µg/mL) | 0.5 µM (≈ 0.218 µg/mL) | 1 µM (≈ 0.435 µg/mL) | 1 µM (≈ 0.435 µg/mL) | – | – | – | – | – | –
5 | NCC[C@H](O)C(=O)N[C@@H]1C[C@H](N)[C@@H](O[C@H]2O[C@H](CN)[C@@H](O)[C@H](O)[C@H]2O)[C@H](O)[C@H]1O[C@H]1O[C@H](CO)[C@@H](O)[C@H](N)[C@H]1O [AMIKACIN] | 32 µM (≈ 18.7 µg/mL) | – | 32 µM (≈ 18.7 µg/mL) | – | > 8 µM | – | 2 µM (≈ 1.17 µg/mL) | – | 0.5 µM (≈ 0.293 µg/mL) | – | > 32 µM | – | – | – | – | – | – | –
6 | CC(C)/N=c1\cc2n(-c3ccc(Cl)cc3)c3ccccc3nc-2cc1Nc1ccc(Cl)cc1 [CLOFAZIMINE] | 16 µM (≈ 7.57 µg/mL) | – | 8 µM (≈ 3.79 µg/mL) | – | > 8 µM | – | 0.25 µM (≈ 0.118 µg/mL) | – | 0.125 µM (≈ 0.0592 µg/mL) | – | 1 µM (≈ 0.473 µg/mL) | – | – | – | – | – | – | –
7 | CC[C@@H](CO)NCCN[C@@H](CC)CO [ETHAMBUTOL] | > 32 µM | – | 16 µM (≈ 3.27 µg/mL) | – | > 8 µM | – | 2 µM (≈ 0.409 µg/mL) | – | 0.5 µM (≈ 0.102 µg/mL) | – | 0.5 µM (≈ 0.102 µg/mL) | – | – | – | – | – | – | –
8 | NNC(=O)c1ccncc1 [ISONIAZID] | > 32 µM | – | 16 µM (≈ 2.19 µg/mL) | – | 32 µM (≈ 4.39 µg/mL) | – | 8 µM (≈ 1.1 µg/mL) | – | 1 µM (≈ 0.137 µg/mL) | – | 0.25 µM (≈ 0.0343 µg/mL) | – | – | – | – | – | – | –
9 | CC1COc2c(N3CCN(C)CC3)c(F)cc3c(=O)c(C(=O)O)cn1c23 (stereo unspecified) [OFLOXACIN] | > 32 µM | – | 16 µM (≈ 5.78 µg/mL) | – | > 8 µM | – | > 16 µM | – | 0.125 µM (≈ 0.0452 µg/mL) | – | 0.5 µM (≈ 0.181 µg/mL) | – | – | – | – | – | – | –
10 | CO[C@H]1/C=C/O[C@@]2(C)Oc3c(C)c(O)c4c(O)c(c(/C=N/N5CCN(C)CC5)c(O)c4c3C2=O)NC(=O)/C(C)=C\C=C\[C@H](C)[C@H](O)[C@@H](C)[C@@H](O)[C@@H](C)[C@H](OC(C)=O)[C@@H]1C [RIFAMPIN] | 16 µM (≈ 13.2 µg/mL) | – | 16 µM (≈ 13.2 µg/mL) | – | > 8 µM | – | 1 µM (≈ 0.823 µg/mL) | – | > 8 µM | – | 2 µM (≈ 1.65 µg/mL) | – | – | – | – | – | – | –
11 | CN[C@@H]1[C@H](O[C@H]2[C@H](O[C@H]3[C@H](O)[C@@H](O)[C@H](N=C(N)N)[C@@H](O)[C@@H]3N=C(N)N)O[C@@H](C)[C@]2(O)C=O)O[C@@H](CO)[C@H](O)[C@H]1O [STREPTOMYCIN] | 32 µM (≈ 18.6 µg/mL) | – | 64 µM (≈ 37.2 µg/mL) | – | 16 µM (≈ 9.31 µg/mL) | – | 0.5 µM (≈ 0.291 µg/mL) | – | 1 µM (≈ 0.582 µg/mL) | – | 0.5 µM (≈ 0.291 µg/mL) | – | – | – | – | – | – | –
12 | GENTAMICIN | – | – | – | – | – | – | – | – | – | – | – | – | > 32 µM | 16 µM | > 8 µM | 16 µM | 2 µM | 0.5 µM

From ChEMBL document CHEMBL3297661, “1-Substituted-5-[(3,5-dinitrobenzyl)sulfanyl]-1H-tetrazoles and their isosteric analogs: A new class of selective antitubercular agents active against drug-susceptible and multidrug-resistant mycobacteria” (Eur J Med Chem, 2014)
